# Where two headings read alike, the source gives them in different places.
# Legend:
# [1] = target: T1, GDP-loaded KRAS4b (amino acids 1-169) G12C/C118S protein (Homo sapiens, UniProt P01116, C118S/G12C); experiment: Covalent cysteine 12 modification by MALDI-TOF MS, GDP-loaded KRAS G12C; assay type: binding; settings: 15 minutes reaction time point
# T1 construct: KRAS4b (amino acids 1-169) G12C/C118S protein; made in house
# Description: (§1) Reaction: 1 μM of GppNHp-, GTP-, or GDP-loaded KRAS4b (amino acids 1-169) G12C/C118S protein (produced in-house by Protein Expression Laboratory, FNLCR/Leidos Biomed) in 20 mM 4-(2-hydroxyethyl)-1-piperazineethanesulfonic acid (HEPES) buffer containing 150 mM NaCl, 1 mM MgCl2, pH 7.3 was prepared freshly before assay. Ten-μL aliquots of protein were dispensed onto low volume 384-well plate, then 375 nL DMSO, and 25 nL of tested compounds from 5 mM DMSO stocks were added to appropriate wells using ECHO 555 acoustic liquid handler (Labcyte Inc.). For each reaction/assay, three blanks were prepared by mixing 10 μL of protein solution with 400 nL DMSO. The contents of the wells were carefully mixed by aspiration, and then each plate was sealed with an adhesive cover, centrifuged at 2000 g for 1 minute, and kept in the dark at room temperature until 5 min, 15 min, 30 min, or 2 h collections.
# (§2) Target pretreatment: Before each assay MALDI target (Bruker MPT 384 ground steel BC) was pre-treated by pipetting on each spot 0.75 μL of saturated sinapinic acid in acetonitrile (ACN).
# (§3) Sample preparation: At collection time point, 2 μL of reaction mixtures were pipetted out into 20 μL MALDI matrix solution (saturated solution of sinapinic acid in 1:1 ACN:water solution containing 0.75% trifluoroacetic acid (TFA)) deposited on 384 well polypropylene plate. Resulting solution was mixed by aspiration, centrifuged at 2000 g for 1 minute, then 1 μL aliquots were dispensed on pre-treated MALDI target using Beckman Coulter Biomek FXP 96/384-Span-8 Laboratory Automation Workstation. Finally, the MALDI target was dried under mild vacuum to produce spots with fine crystalline structure.
# (§4) Measurements: MALDI-TOF measurements were performed on a Bruker Daltonics rapiflex Tissuetyper TOF-TOF mass spectrometer using linear mode and mass range from 18.6 to 21.6 kDa. Detector gain was set to 3.3× (483 V), sample rate to 5 GS/s, real time smoothing to medium (175 MHz), laser smart beam pattern was set to: “MS Thin Layer M5”, and the laser frequency was 10000 Hz. Spectra were automatically collected using custom Auto Xecute method. Laser power was auto adjusted using fuzzy control. The peak selection range was set to be between 19000 and 21500 Da. Peak evaluation uses half width parameter set to be smaller than 40 Da for processed spectrograms (centroid peak detection; smoothed by SavitzkyGolay algorithm using 7 m/z width and 2 cycles; baseline was subtracted using median algorithm with flatness 1 and median level 0.01). Fuzzy control used Proteins/Oligonucleotides protocol with minimum half width 1/10 times above threshold. Up to 40000 satisfactory shots were collected in 10000 shot steps. Dynamic termination was implemented to finish data collection when peak signal/noise ratio was reaching value of 50.
# (§5) Spectra processing: Spectra were smoothed by SavitzkyGolay algorithm using 7 m/z width and three cycles. Centroid peak detection algorithm was used with signal to noise threshold set to 6, relative intensity threshold 4%, peak width 10 m/z and median baseline subtraction using flatness of 1 and median level of 0.01. Peak intensity and area under the peak were evaluated and recorded for all peaks between 19,300 Da and 21,550 Da.
# (§6) Calculation of percent modification: Percent modification was calculated as a ratio of peak height for protein modified by compound to sum of peak height of remaining protein plus peak height for protein modified by compound. If multiple modifications were observed each was calculated as a ratio of peak height for given modification versus sum of peak heights for all observed protein species. Data reported in Table 5 are from 15 minutes reaction time point.
# [2] = target: T2, GppNHp-loaded KRAS4b (amino acids 1-169) G12C/C118S protein (Homo sapiens, UniProt P01116, C118S/G12C); experiment: Covalent cysteine 12 modification by MALDI-TOF MS, GppNHp-loaded KRAS G12C; assay type: binding; settings: 15 minutes reaction time point
# T2 construct: KRAS4b (amino acids 1-169) G12C/C118S protein; made in house
# Description: as §1, §2, §3, §4, §5, §6
# [3] = target: T3, Avi-KRAS G12C (1-169) GppNHp/RAF1 RBD-3×FLAG (52-151) (Homo sapiens, UniProt P01116, G12C); experiment: Raf1 RBD-KRAS G12C-GppNHp disruption (protein:protein interaction HTRF assay); assay type: biochemical
# T3 construct: Avi-KRAS G12C (1-169) GppNHp/RAF1 RBD-3×FLAG (52-151)
# Description: A protein: protein (PPI) interaction Homogeneous Time Resolved Fluorescence (HTRF) assay was used to determine the effectiveness of compounds of the present disclosure in disrupting KRAS G12C protein and effector (RAF1 or PIK3CA) binding.
# The HTRF assay used the following reagents and proteins: 50 nM Avi-KRAS G12C Q25A (1-169) GppNHp/3×FLAG-PI3K CA (157-299); 50 nM Avi-KRAS G12C (1-169) GppNHp/RAF1 RBD-3×FLAG (52-151); 35 nM Avi-PI3K RBD-3×FLAG; Assay Buffer: 50 mM Tris pH 7.5, 100 mM NaCl, 5 mM MgCl2, 0.1% BSA, 0.01% Tween 20, 10% DMSO; Bead Buffer: 50 mM Tris pH 7.5, 0.01% Tween 20; Assay volume: 20 μL (384 well plate-low volume format); and Compound titration: 30-0.02 μM, 3× dilution series.
# The HTRF assay employed the following protocol:
# Compounds were dispensed in assay plate (384-well, Grenier Bione #784075) using Echo (model 555) with dose response settings: 200 nL final volume, titration from 100 μM as a 10-point dilution series. KRAS proteins were prepared in assay buffer, and dispensed on plates, 5 μL per well, then incubated for 1 h at room temperature, with 700 rpm shaking. RAF1 RBD and PI3K RBD CA were prepared in assay buffer, dispensed onto plates, 5 μL per well, and then incubated for 1 h at room temperature, with 700 rpm shaking. Reagent mix was then prepared and dispensed on plates, 10 μL per well, and then incubated for 1 h at room temperature, with 700 rpm shaking.
# Plates were analyzed on an Envision plate reader using the following setting: Excitation 320 nm, Bandwidth 75 nm; Emission 615 nm, Bandwidth 85 nm; Gain 100%; Flashes 100; Lag 60 μs. Data was reported as percentage of activity, with DMSO as 100%. Data was plotted and analyzed using Prism 8.
# pERK in NCI-H358 cells = experiment: Cell-based pERK HTRF assay; settings: 30 min incubation, read-out: pERK in NCI-H358 cell inhibition IC50
# Description: pERK assays (Perkin Elmer) were used to determine the effectiveness of compounds of the present disclosure in disrupting KRAS G12C protein/effector signaling in cells.
# On Day 1, cells (NCI-H358) were seeded into 96-well plates at 4×10^4 cells/well in complete growth media (RPMI, 10% FBS).
# On Day 2, cells were treated with compounds at 0.25% DMSO. The source plate was created with compounds diluted in media at 5-fold the final assay concentration. The compounds were run in a 9-point concentration curve starting at 75 μM, with a 3-fold dilution between concentrations. 20 μL was transferred onto the cell plates (final volume in wells was 100 μL). Plates were harvested after 30 min incubation by aspirating media and adding kit-supplied 1× supplemented lysis buffer to all wells (75 μl per well). Plates were then placed on a plate shaker and incubated at 850 rpm for an additional 30 min.
# Antibody mixture solution was prepared by diluting aliquoted d2 and Eu Cryptate antibodies 1:20 in kit supplied detection buffer, then mixed the diluted antibodies solutions (1:1 v:v). 4 μL of this solution was then added to a 384-well detection plate (Perkin Elmer; 6008230).
# Samples were homogenized by pipetting up and down and then transferred (16 μL of cell lysates) from the 96-well cell culture plate to two wells of the HTRF 384-well detection plate containing the antibody solution. Plates were centrifuged (524 g for Imin) and allowed to incubate between 4 and 24 h at room temperature. Maximum signal is reached after 4 h incubation time and remains stable over a period of 24 hours. Therefore, readings can be made between 4 and 24 h of incubation. Plates were centrifuged again (524 g for Imin) and analyzed on the En Vision plate reader using the following settings: Excitation 320 nm, Bandwidth 75 nm; Emission 615 nm, Bandwidth 85 nm; Gain 100%; Flashes 100; Lag 60 μs.
Compound,GDP-KRAS G12C percent of modification [1],GppNHp-KRAS G12C percent of modification [2],IC50 [3] [nM],IC50 (pERK in NCI-H358 cells) [nM],"IC50 (pERK in NCI-H358 cells; Homo sapiens, NCI-H358, 0.5 h) [nM]"
"C=CC(=O)N1CC[C@@H](Oc2nc(OC[C@@]34CCCN3C[C@H](F)C4)nc3c(F)c(-c4ccc(F)c5sc(N)nc45)c(C(F)(F)F)cc23)C1 (single isomer, unassigned) [Compound 12]",D (percent of modification <10%),D (percent of modification <10%),500 to 5000,100 to 1000,
"C=CC(=O)N1CC[C@@H](Oc2nc(OC[C@@H]3C[C@@H](OC)CN3C)nc3c(F)c(-c4ccc(F)c5sc(N)nc45)c(C(F)(F)F)cc23)C1 (single isomer, unassigned) [Compound 14]",A (percent of modification ≥70%),B (50≤percent of modification <70%),≤ 500,≤ 100,
"C=CC(=O)N1CC[C@@H](Oc2nc(OC[C@@H]3C[C@@H](OC)CN3C)nc3c(F)c(-c4ccc(F)c5sc(N)nc45)c(C(F)(F)F)cc23)C1 (single isomer, unassigned) [Compound 15]",D (percent of modification <10%),D (percent of modification <10%),> 20000,> 1000,
"C=CC(=O)N1CC[C@@H](Oc2nc(OC[C@]34CCCN3C[C@H](OC)C4)nc3c(F)c(-c4ccc(F)c5sc(N)nc45)c(C(F)(F)F)cc23)C1 (single isomer, unassigned) [Compound 30]",A (percent of modification ≥70%),A (percent of modification ≥70%),≤ 500,≤ 100,
"C=CC(=O)N1CC[C@@H](Oc2nc(OC[C@]34CCCN3C[C@H](OC)C4)nc3c(F)c(-c4ccc(F)c5sc(N)nc45)c(C(F)(F)F)cc23)C1 (single isomer, unassigned) [Compound 31]",D (percent of modification <10%),D (percent of modification <10%),500 to 5000,> 1000,
C=CC(=O)N1CC(Oc2nc(OC[C@@H]3CCCN3C)nc3c(F)c(-c4ccc(F)c5sc(N)nc45)c(Cl)cc23)C1 [Compound 1],A (percent of modification ≥70%),C (10%≤modification <50%),500 to 5000,,100 to 1000
CC#CC(=O)N1CC(Oc2nc(OC[C@@H]3CCCN3C)nc3c(F)c(-c4ccc(F)c5sc(N)nc45)c(Cl)cc23)C1 [Compound 2],B (50≤percent of modification <70%),D (percent of modification <10%),500 to 5000,,100 to 1000
"C=CC(=O)N1CC(Oc2nc(OC[C@@]34CCCN3C[C@H](F)C4)nc3c(F)c(-c4ccc(F)c5sc(N)nc45)c(C(F)(F)F)cc23)C1 [Compound 7, 1-(3-((7-(2-amino-7-fluorobenzo[d]thiazol-4-yl)-8-fluoro-2-(((2R,7aS)-2-fluorotetrahydro-1H-pyrrolizin-7a (5H)-yl)methoxy)-6-(trifluoromethyl)quinazolin-4-yl)oxy)azetidin-1-yl) prop-2-en-1-one]",D (percent of modification <10%),D (percent of modification <10%),> 20000,,> 1000
C=CC(=O)N1CC[C@@H](Oc2nc(OC[C@@H]3CCCN3C)nc3c(F)c(-c4ccc(F)c5sc(N)nc45)c(C(F)(F)F)cc23)C1 [Compound 13],A (percent of modification ≥70%),B (50≤percent of modification <70%),≤ 500,,100 to 1000
C=CC(=O)N1CC(Oc2nc(OC[C@@H]3CCCN3C)nc3c(F)c(-c4ccc(F)c5sc(N)nc45)c(C(F)(F)F)cc23)C1 [Compound 22],A (percent of modification ≥70%),C (10%≤modification <50%),≤ 500,,≤ 100
C=CC(=O)N1CC(Oc2nc(OC[C@@H]3C[C@@H](F)CN3C)nc3c(F)c(-c4ccc(F)c5sc(N)nc45)c(C(F)(F)F)cc23)C1 [Compound 23],B (50≤percent of modification <70%),C (10%≤modification <50%),500 to 5000,,100 to 1000
C=CC(=O)N1CC(Oc2nc(OC[C@@H]3C[C@@H](OC)CN3C)nc3c(F)c(-c4ccc(F)c5sc(N)nc45)c(C(F)(F)F)cc23)C1 [Compound 26],A (percent of modification ≥70%),C (10%≤modification <50%),500 to 5000,,≤ 100

# From US20250188085A1, “COMPOSITIONS AND METHODS FOR INHIBITION OF RAS” (THERAS, INC., priority 2022, published 2025)
